In patent US20050059725A1, “Methods of using and preparing thiolutin dioxide” (Aventis Pharma Deutschland GmbH, priority 2001, published 2005):

Tests used:
Assay type in all cases: biochemical
enkephalinase = enkephalinase (Homo sapiens, UniProt P08473); assay: Selectivity against other zinc-containing metalloproteases: enkephalinase; conditions: selectivity statement
neurolysin = neurolysin (Homo sapiens, UniProt Q9BYT8); assay: Neurolysin inhibition assay (fluorogenic substrate, 384-well); conditions: substrate Mcc-Pro-Leu-Gly-D-Lys(Dnp)-OH 4 μM, 30° C., 30 min, Tris buffer pH 7.5
Chain of neurolysin (Q9BYT8 38-704): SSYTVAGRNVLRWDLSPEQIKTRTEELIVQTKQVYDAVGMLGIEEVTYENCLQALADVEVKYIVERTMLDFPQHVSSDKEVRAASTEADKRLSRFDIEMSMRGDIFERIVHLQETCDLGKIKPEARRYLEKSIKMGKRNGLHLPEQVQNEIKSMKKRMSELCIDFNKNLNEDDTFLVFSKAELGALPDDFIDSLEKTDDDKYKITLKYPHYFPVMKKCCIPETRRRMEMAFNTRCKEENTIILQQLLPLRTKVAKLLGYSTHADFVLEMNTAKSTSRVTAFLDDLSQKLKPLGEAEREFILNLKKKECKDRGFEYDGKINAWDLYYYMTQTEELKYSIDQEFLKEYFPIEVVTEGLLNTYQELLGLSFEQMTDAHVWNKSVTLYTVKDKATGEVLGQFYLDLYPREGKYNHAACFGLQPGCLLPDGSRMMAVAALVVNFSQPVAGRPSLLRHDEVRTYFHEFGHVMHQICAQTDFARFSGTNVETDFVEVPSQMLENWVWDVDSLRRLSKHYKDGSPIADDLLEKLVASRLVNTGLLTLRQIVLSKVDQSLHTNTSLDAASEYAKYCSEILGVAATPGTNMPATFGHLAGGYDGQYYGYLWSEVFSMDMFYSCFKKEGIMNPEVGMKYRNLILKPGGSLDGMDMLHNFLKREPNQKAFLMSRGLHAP
Procedure: An assay was performed on a CyBio pipetting system in a 384-well plate format in a final assay volume of 16 μl. In brief, 4 μl of appropriately diluted microbial extracts (dilution in 50 mM Tris buffer, pH 7.5) were distributed in wells of test plates (Greiner, white 384-small volume well plates). Thereafter, 4 μl of neurolysin (pre-diluted 1:5, 360 ng of protein) were added to each well. After a 10 minute pre-incubation of the samples and the enzyme at room temperature, the reaction was initiated by the addition of 8 μl of substrate (Mcc-Pro-Leu-Gly-D-Lys (Dnp)—OH, CALBIOCHEM) in Tris buffer. The final test concentration of the substrate was 4 μM.
After pipetting, the plates were immediately placed in a fluorometer (SpectraFluorplus, SLT) and the initial amount of fluorescence was read (λex: 360 nm/λem405 nm). The reaction was then allowed to proceed at 30° C. for 30 min, and a final fluorescence reading was taken.
The data are first blank corrected. Then, after subtracting the values at the zero time point from the respective values after 30 min, sample inhibition activity was expressed as 100−(Net Intensity compound/Net Intensity control)×100(%)
Each test plate contained a reasonable number of positive controls and blanks (buffer instead of enzyme).

[1] = system: angiotensin converting enzymes; assay: Selectivity against other zinc-containing metalloproteases: angiotensin converting enzymes; conditions: selectivity statement

Chain of enkephalinase (P08473 whole entry, species assumed): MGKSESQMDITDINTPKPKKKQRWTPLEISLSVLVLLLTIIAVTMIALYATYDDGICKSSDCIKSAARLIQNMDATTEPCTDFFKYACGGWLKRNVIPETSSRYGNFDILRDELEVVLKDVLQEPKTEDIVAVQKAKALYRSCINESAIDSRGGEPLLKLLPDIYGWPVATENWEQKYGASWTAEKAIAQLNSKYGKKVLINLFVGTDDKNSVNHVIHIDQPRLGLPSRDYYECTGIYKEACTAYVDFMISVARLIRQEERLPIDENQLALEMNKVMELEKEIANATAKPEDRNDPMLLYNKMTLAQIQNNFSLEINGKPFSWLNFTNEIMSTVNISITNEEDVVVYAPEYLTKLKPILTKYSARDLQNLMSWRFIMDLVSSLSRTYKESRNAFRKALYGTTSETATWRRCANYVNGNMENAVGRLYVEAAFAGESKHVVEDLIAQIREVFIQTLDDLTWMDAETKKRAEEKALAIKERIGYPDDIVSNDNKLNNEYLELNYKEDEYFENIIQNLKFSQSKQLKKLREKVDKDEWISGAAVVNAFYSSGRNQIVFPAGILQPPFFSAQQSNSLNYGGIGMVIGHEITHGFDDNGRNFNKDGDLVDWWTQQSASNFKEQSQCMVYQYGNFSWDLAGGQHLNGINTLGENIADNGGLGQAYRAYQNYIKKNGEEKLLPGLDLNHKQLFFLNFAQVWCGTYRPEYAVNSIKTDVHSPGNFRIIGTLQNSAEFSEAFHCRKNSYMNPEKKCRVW

blocking of enkephalinase (enkephalinase): does not block | IC50 (neurolysin): 600 nM | blocking of angiotensin converting enzymes [1]: does not block
Compound: CC(=O)NC1=C2SS(=O)(=O)C=C2N(C)C1=O [thiolutin dioxide]
